Laboratory results: US20240391875A1, “ISOQUINOLINONES AND QUINOLINONES AS MODULATORS OF POLRMT” (Pretzel Therapeutics, Inc., priority 2021, published 2024)

The compounds below were run against POLRMT (Homo sapiens, UniProt O00411) (assay: homogeneous TR-FRET assay of mitochondrial transcription (inhibition of POLRMT)). Conditions: isoquinolinone compounds (Table 1).
Chain of POLRMT (O00411 42-1230): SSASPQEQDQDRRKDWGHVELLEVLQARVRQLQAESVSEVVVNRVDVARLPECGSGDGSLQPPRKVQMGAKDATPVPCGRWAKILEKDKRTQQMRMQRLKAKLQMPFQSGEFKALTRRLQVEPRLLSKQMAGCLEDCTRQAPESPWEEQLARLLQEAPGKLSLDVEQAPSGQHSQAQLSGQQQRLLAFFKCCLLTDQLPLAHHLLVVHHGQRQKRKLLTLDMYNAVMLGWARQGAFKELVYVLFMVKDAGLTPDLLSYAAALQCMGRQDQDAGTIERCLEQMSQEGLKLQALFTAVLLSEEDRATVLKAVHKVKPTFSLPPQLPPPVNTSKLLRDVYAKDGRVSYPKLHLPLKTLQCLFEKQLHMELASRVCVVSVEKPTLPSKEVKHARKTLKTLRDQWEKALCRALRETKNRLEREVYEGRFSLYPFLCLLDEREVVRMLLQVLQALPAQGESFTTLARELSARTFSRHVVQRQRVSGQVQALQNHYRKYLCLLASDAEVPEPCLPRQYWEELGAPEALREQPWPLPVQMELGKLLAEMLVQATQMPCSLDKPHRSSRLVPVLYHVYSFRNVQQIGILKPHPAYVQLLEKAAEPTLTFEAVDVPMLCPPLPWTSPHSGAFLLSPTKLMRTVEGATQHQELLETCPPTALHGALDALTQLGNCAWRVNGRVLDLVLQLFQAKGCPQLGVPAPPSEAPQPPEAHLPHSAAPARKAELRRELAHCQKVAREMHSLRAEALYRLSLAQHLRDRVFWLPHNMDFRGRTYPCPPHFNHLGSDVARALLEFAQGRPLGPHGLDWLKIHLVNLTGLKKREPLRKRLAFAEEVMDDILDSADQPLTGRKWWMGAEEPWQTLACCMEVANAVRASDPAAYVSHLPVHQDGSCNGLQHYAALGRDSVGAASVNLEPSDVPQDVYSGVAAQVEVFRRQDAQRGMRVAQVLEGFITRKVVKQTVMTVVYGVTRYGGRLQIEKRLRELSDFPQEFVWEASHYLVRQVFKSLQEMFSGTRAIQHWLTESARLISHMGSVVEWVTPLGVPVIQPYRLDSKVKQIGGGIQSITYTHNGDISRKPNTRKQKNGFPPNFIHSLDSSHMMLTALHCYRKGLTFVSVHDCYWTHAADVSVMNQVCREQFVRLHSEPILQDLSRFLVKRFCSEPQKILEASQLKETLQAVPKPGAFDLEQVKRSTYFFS
Format: biochemical
Procedure: The inhibitory activity of the compounds of the present invention against POLRMT were determined by assays based on Bergbrede, T., et al., “An adaptable high-throughput technology enabling the identification of specific transcription modulators,” SLAC Discov., 22, 378-386 (2017).
The ability of some compounds of the present invention to inhibit POLRMT were determined in a homogeneous TR-FRET Assay using high-throughput screening in a 384-well plate format. This method is used to monitor the activity of mitochondrial transcription through measurement of its product, a 407 bp long RNA transcript. Detection of the product is facilitated by hybridization of two DNA-oligonucleotide probes to specific and adjacent sequences within the RNA product sequence. Upon annealing of the probes, two fluorophores are coupled directly to an acceptor nucleotide probe (ATTO647, 5′), or introduced via a coupled streptavidin with a biotinylated donor nucleotide probe (Europium cryptate) that is brought into sufficient proximity to serve as a fluorescence-donor-acceptor pair. Thus, a FRET signal at 665 nm is generated upon excitation at 340 nm.
Proteins used as transcription factors (POLRMT: NP_005026.3, TFAM: NP_003192.1, TFB2M: NP_071761.1) are diluted from their stocks to working concentrations of 1 μM, 20 μM and 4 μM respectively, in a dilution buffer containing 20 mM Tris-HCl (pH 8.0), 200 mM NaCl, 10% (v/v) glycerol, 1 mM Dithiothreitol (DTT), 0.5 mM EDTA.
DNA template is a pUC18 plasmid with the mitochondrial light strand promotor sequence (1-477) cloned between HindIII and BamHI sites. The DNA template is restriction linearized proximal to the promotor 3′-end (pUC-LSP).
The reaction mixture (10 uL) containing 7.5 nM POLRMT, 15 nM of TFB2M, 30 nM of TFAM, 0.5 nM of DNA template and 500 μM nucleotide triphosphate mix (NTPs) in a reaction buffer (containing 10 mM Tris-HCl (pH 7.5), 10 mM MgCl2, 40 mM NaCl, 10 mM DTT, 0.005% (w/v) Tween-20, 160 units/ml Rnase inhibitor and 0.1 mg/mL BSA) are dispensed to compounds in microplates, using a Thermo Multidrop® dispenser, and incubated at 37° C. in a VWR INCU-Line incubator for 60 minutes after mixing. No nucleotide triphosphate mix is added to negative control samples. Microplates with compounds to be tested in the assay are prepared from 10 mM compound stocks in 100% DMSO, equal amounts of DMSO without any compound are added to positive control and negative control samples.
During the incubation, a mix of the detection reagents is prepared in a buffer such that the enzymatic reaction is terminated due to chelating of Mg-ions and increased ionic strength, containing 50 mM Tris-HCl (pH 7.5), 700 mM NaCl, 20 mM EDTA, and 0.010% (w/v) Tween-20. Europium-streptavidin is pre-incubated with a 200-fold molar excess of a random sequence oligonucleotide to block unspecific binding of oligo, for two hours at ambient temperature in the dark. Afterwards, the blocked Europium-streptavidin is kept on ice until use.
At the end of the enzymatic reaction time, 5 μL detection oligo mix in the detection buffer is added, and assay plates are mixed and kept at ambient temperature for one hour, protected from light. The concentration of the Acceptor nucleotide oligo (e.g., ATTO647N-5′-[…]-3′) and Donor nucleotide oligo (e.g., bio-5′-AACACATCTCT(-bio)GCCAAACCCCA-bio-3′) in each assay well is 1 nM, and 3 nM, respectively.
After incubation with oligo mix, 5 μL of pre-blocked Europium-streptavidin reagent is dispensed to each assay well, assay plates are again mixed and kept at ambient temperature for one hour, protected from light.
The generated signal is measured with BMG Pherastar microtiter plate reader with a TRF light unit, using excitation at 340 nm, an integration time of 200 μs, and a delay time of 100 μs, before detection at 620 nm and 665 nm. The ratio of donor- and acceptor-fluorescence is used as a measure of the generated transcript product (i.e. enzymatic activity).
`Cc1ccc(-c2c[nH]c(=O)c3cc(OCC#N)ccc23)c(Cl)c1` [Example 89, 2-((4-(2-chloro-4-methylphenyl)-1-oxo-1,2-dihydroisoquinolin-7-yl)oxy)acetonitrile] was tested, and the IC50 was 0.3 µM.
`Cc1ccccc1-c1c[nH]c(=O)c2cc(OC(C)C#N)ccc12` (single isomer, unassigned) [Example 12, 2-((1-oxo-4-(o-tolyl)-1,2-dihydroisoquinolin-7-yl)oxy)propanenitrile] showed an IC50 of 0.2 µM.
`C[C@@H](Oc1ccc2c(-c3ccc(F)cc3Cl)c[nH]c(=O)c2c1)C(=O)N1CCO[C@H](C(N)=O)C1` [Example 132, (S)-4-((R)-2-((4-(2-chloro-4-fluorophenyl)-1-oxo-1,2-dihydroisoquinolin-7-yl)oxy)propanoyl)morpholine-2-carboxamide] gave an IC50 of 0.4 µM.
`COCC(Oc1ccc2c(-c3ccccc3C)c[nH]c(=O)c2c1)C(=O)O` (centres unmarked) [Example 51, 3-methoxy-2-((1-oxo-4-(o-tolyl)-1,2-dihydroisoquinolin-7-yl)oxy)propanoic acid] showed an IC50 of 6 µM.
Work on `CC[C@@H](Oc1ccc2c(-c3ccccc3C)c[nH]c(=O)c2c1)C(=O)O` [Example 126, (R)-2-((1-oxo-4-(o-tolyl)-1,2-dihydroisoquinolin-7-yl)oxy)butanoic acid] yielded an IC50 of 0.4 µM.
In the case of `Cc1ccccc1-c1c[nH]c(=O)c2cc(NCC(N)=O)ccc12` [Example 70, 2-((1-oxo-4-(o-tolyl)-1,2-dihydroisoquinolin-7-yl)amino)acetamide], the IC50 is reported as 8 µM.
`O=c1[nH]cc(-c2ccc(F)cc2Cl)c2ccc(O)cc12` [Example 2, 4-(2-chloro-4-fluorophenyl)-7-hydroxyisoquinolin-1(2H)-one] was tested, and the IC50 was > 100 µM.
`COCCOc1ccc2c(-c3ccccc3C)c[nH]c(=O)c2c1` [Example 9, 7-(2-methoxyethoxy)-4-(o-tolyl)isoquinolin-1(2H)-one] showed an IC50 of 3 µM.
For `CC(=O)N1CCCC(Oc2ccc3c(-c4ccccc4C)c[nH]c(=O)c3c2)C1` (centres unmarked) [Example 42, 7-((1-acetylpiperidin-3-yl)oxy)-4-(o-tolyl)isoquinolin-1(2H)-one], the IC50 was 7 µM.
With `C[C@@H](Oc1ccc2c(-c3ccc(F)cc3Cl)c[nH]c(=O)c2c1)C(=O)N1CCOC[C@H]1C(=O)O` [Example 112, (S)-4-((R)-2-((4-(2-chloro-4-fluorophenyl)-1-oxo-1,2-dihydroisoquinolin-7-yl)oxy)propanoyl)morpholine-3-carboxylic acid] the IC50 was 4 µM.
`COCC(=O)Nc1ccc2c(-c3ccccc3C)c[nH]c(=O)c2c1` [Example 32, 2-methoxy-N-(1-oxo-4-(o-tolyl)-1,2-dihydroisoquinolin-7-yl)acetamide] showed an IC50 of 22 µM.
`CC(C)Oc1ccc2c(-c3ccc(F)cc3Cl)c[nH]c(=O)c2c1` [Example 7, 4-(2-chloro-4-fluorophenyl)-7-isopropoxyisoquinolin-1(2H)-one] gave an IC50 of 0.8 µM.
`COc1ccc2c(-c3ccc(F)cc3Cl)c[nH]c(=O)c2c1` [Example 1, 4-(2-chloro-4-fluorophenyl)-7-methoxyisoquinolin-1(2H)-one] was tested, and the IC50 was 10 µM.
`Cc1ccccc1-c1c[nH]c(=O)c2cc(OC(C)C(F)(F)F)ccc12` (centres unmarked) [Example 61, 4-(o-tolyl)-7-((1,1,1-trifluoropropan-2-yl)oxy)isoquinolin-1(2H)-one] showed an IC50 of 0.4 µM.
Compound `C[C@@H](Oc1ccc2c(-c3ccc(F)cc3Cl)c[nH]c(=O)c2c1)C(=O)N1CCC[C@H](C(=O)O)C1` [Example 62, (S)-1-((R)-2-((4-(2-chloro-4-fluorophenyl)-1-oxo-1,2-dihydroisoquinolin-7-yl)oxy)propanoyl)piperidine-3-carboxylic acid] has an IC50 of 0.06 µM.
`CC(=O)Nc1ccc2c(-c3ccccc3C)c[nH]c(=O)c2c1` [Example 31, N-(1-oxo-4-(o-tolyl)-1,2-dihydroisoquinolin-7-yl)acetamide] showed an IC50 of 8 µM.
Work on `C[C@@H](Oc1ccc2c(-c3ccc(F)cc3Cl)c[nH]c(=O)c2c1)C(=O)N1CCOC[C@@H]1CO` [Example 114, 4-(2-chloro-4-fluorophenyl)-7-(((R)-1-((S)-3-(hydroxymethyl)morpholino)-1-oxopropan-2-yl)oxy)isoquinolin-1(2H)-one] yielded an IC50 of 0.2 µM.
`Cc1ccccc1-c1c[nH]c(=O)c2cc(O[C@H](C)C(=O)N3C4CCC3COC4)ccc12` [Example 85, 7-(((2R)-1-(3-oxa-8-azabicyclo[3.2.1]octan-8-yl)-1-oxopropan-2-yl)oxy)-4-(o-tolyl)isoquinolin-1(2H)-one] showed an IC50 of 0.02 µM.
Compound `C[C@@H](Oc1ccc2c(-c3ccc(F)cc3Cl)c[nH]c(=O)c2c1)C(=O)N1CCO[C@H](C(=O)O)C1` [Example 121, (S)-4-((R)-2-((4-(2-chloro-4-fluorophenyl)-1-oxo-1,2-dihydroisoquinolin-7-yl)oxy)propanoyl)morpholine-2-carboxylic acid] has an IC50 of 0.2 µM.
`Cc1ccccc1-c1c[nH]c(=O)c2cc(O[C@H](C)C(=O)N3CCC[C@H](C#N)C3)ccc12` [Example 77, (S)-1-((R)-2-((1-oxo-4-(o-tolyl)-1,2-dihydroisoquinolin-7-yl)oxy)propanoyl)piperidine-3-carbonitrile] was tested, and the IC50 was 0.03 µM.
`Cc1ccccc1-c1c[nH]c(=O)c2cc(C(=O)N(C)C)ccc12` [Example 23, N,N-dimethyl-1-oxo-4-(o-tolyl)-1,2-dihydroisoquinoline-7-carboxamide] gave an IC50 of 75 µM.
`CC(C#N)Oc1ccc2c(-c3ccc(F)cc3Cl)c[nH]c(=O)c2c1` (single isomer, unassigned) [Example 49, 2-((4-(2-chloro-4-fluorophenyl)-1-oxo-1,2-dihydroisoquinolin-7-yl)oxy)propanenitrile] gave an IC50 of 5 µM.
With `C[C@@H](Oc1ccc2c(-c3ccc(F)cc3Cl)c[nH]c(=O)c2c1)C(=O)N1CCOCC1` [Example 79, (R)-4-(2-chloro-4-fluorophenyl)-7-((1-morpholino-1-oxopropan-2-yl)oxy)isoquinolin-1(2H)-one] the IC50 was 0.05 µM.
With `C[C@@H](Oc1ccc2c(-c3ccc(F)cc3Cl)c[nH]c(=O)c2c1)C(=O)N1CCOCC1(C)C` [Example 107, (R)-4-(2-chloro-4-fluorophenyl)-7-((1-(3,3-dimethylmorpholino)-1-oxopropan-2-yl)oxy)isoquinolin-1(2H)-one] the IC50 was 0.2 µM.
`CNC(=O)[C@@H](C)Oc1ccc2c(-c3ccccc3C)c[nH]c(=O)c2c1` [Example 20, (R)—N-methyl-2-((1-oxo-4-(o-tolyl)-1,2-dihydroisoquinolin-7-yl)oxy)propanamide] showed an IC50 of 1 µM.
Work on `CNC(=O)[C@H](C)Oc1ccc2c(-c3ccccc3C)c[nH]c(=O)c2c1` [Example 28, (S)—N-methyl-2-((1-oxo-4-(o-tolyl)-1,2-dihydroisoquinolin-7-yl)oxy)propenamide] yielded an IC50 of 36 µM.

Same assay, conditions: quinolinone compounds (Table 2)
Work on `Cc1ccccc1-c1cc(=O)[nH]c2cc(O[C@H](C)C(=O)N3CCC[C@H](C(=O)O)C3)ccc12` [Example Q15, (S)-1-((R)-2-((2-oxo-4-(o-tolyl)-1,2-dihydroquinolin-7-yl)oxy)propanoyl)piperidine-3-carboxylic acid] yielded an IC50 of 7 µM.
`C[C@@H](Oc1ccc2c(-c3ccc(F)cc3Cl)cc(=O)[nH]c2c1)C(=O)N1CCCCC1` [Example Q5, (R)-4-(2-chloro-4-fluorophenyl)-7-((1-oxo-1-(piperidin-1-yl)propan-2-yl)oxy)quinolin-2(1H)-one] was tested, and the IC50 was 5 µM.
In the case of `CC(C)Oc1ccc2c(-c3ccc(F)cc3Cl)cc(=O)[nH]c2c1` [Example Q4, 4-(2-chloro-4-fluorophenyl)-7-isopropoxyquinolin-2(1H)-one], the IC50 is reported as 23 µM.
